Among the data in PubChem BioAssay (NCI) are TGI and GI50 values, retold here.

“And” between values parts separate entries of the source, which are not always exact repeats. Equal values may be shown once.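 The compound was tested at five concentrations on cells cultured in 96-well plates, with a 48-hour exposure period. GI50 is the concentration that inhibits growth by half. At the TGI there is no net growth.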

One assay relates to OVCAR-3 ovarian. The assay is described as follows: growth of human tumour cells (NCI), 48 h.
In turn, `O=C(c1ccc(Cl)cc1)c1cnc(Nc2ccccc2Cl)s1` gave a TGI of 40.9 µM.

The next assay concerns MDA-MB-435. In words: growth of human tumour cells (NCI), 48 h.
`O=C(c1ccc(F)c(F)c1Nc1ccc(I)cc1F)N1CC(O)([C@@H]2CCCCN2)C1`: the GI50 was < 0.01 µM and 0.00943 µM; the TGI is 15.1 µM and > 10 µM.

Turning to `Oc1cc(O)c2c(c1)OC(c1ccc(O)c(O)c1)C(OC1(c3cc(O)c(O)c(O)c3)Oc3cc(O)cc(O)c3C(O)C1O)C2` (stereo not drawn), the TGI worked out at 37.6 µM.

`COC12C=C/C(=C(/C(=O)OCc3ccncc3)C(=O)CCCCCCCCC3(OC)C=C/C(=C(/C(=O)OCc4ccncc4)C(=O)CCCCCCCC1)O3)O2`: the GI50 is 0.121 µM and the TGI worked out at 0.312 µM.

As to `CCOc1ccc2nc(S/C(=C/C=C(C#N)C#N)c3ccc(C)cc3)sc2c1`, the GI50 was 20.7 µM and the TGI is 59.4 µM.

Take `COc1cc(CNCCCN2C(=O)c3ccc4c5c(ccc(c35)C2=O)C(=O)N(CCCNCc2cc(OC)c(OC)c(OC)c2)C4=O)cc(OC)c1OC`: the GI50 was 0.367 µM and the TGI is 1.11 µM.

Turning to `Cc1nc2cnc(N)c(C#Cc3cncc(C(=O)Nc4ccc(CN5CCN(C)CC5)c(C(F)(F)F)c4)c3)c2nc1C`, the GI50 is 0.14 µM and the TGI worked out at 6 µM.

Regarding `CC(=O)OC12c3ccccc3-c3ccccc3C1C1C(=O)N(C)C(=O)C12Cl` (stereo not drawn), the TGI was > 10 µM.

For `Cc1csc(Nc2nc(-c3cccc(Br)c3)nc(C(Cl)(Cl)Cl)n2)n1`, the GI50 is 6.07 µM and the TGI is > 100 µM.

For the compound `NS(=O)(=O)c1ccc(N(/C=C/C(=O)C(F)(F)F)CC(=O)c2ccc(Cl)cc2)cc1`, the GI50 is > 100 µM and the TGI was > 100 µM.

In the case of `C1CSCCSCCS1`, the TGI was > 100 µM.

Regarding `CCN(CC)CCOc1ccc(/C=C2\CC3C4CC=C5C[C@@H](O)CC[C@]5(C)C4CC[C@]3(C)C2=O)cc1OC` (stereo partly drawn), the GI50 is 1.94 µM and the TGI is 3.74 µM.

In the case of `O=C(CC(O)(C(F)(F)F)C(F)(F)F)c1cc(CC(=O)C(O)(C(F)(F)F)C(F)(F)F)cc(CC(=O)C(O)(C(F)(F)F)C(F)(F)F)c1`, the TGI was > 4.25 µM.

Take `O=c1c2ccccc2sc2cccc(NCCCN3CCN(CCCNc4cccc5sc6ccccc6c(=O)c45)CC3)c12`: the TGI was > 100 µM.

Turning to `CC1(C)OCCn2c1nc1c(N3CCOCC3)nc(-c3cnc(N)nc3)nc12`, the GI50 is 0.27 µM.

`CC1=CC(=O)[C@@H](O)[C@]2(C)[C@H]3[C@@]4(O)OC[C@]35[C@H]([C@@H](C)[C@H]4O)[C@@H](O)C(=O)O[C@@H]5C[C@@H]12` showed a TGI of 1.73 µM.

For the compound `O=C(c1c(F)ccc(NS(=O)(=O)N2CC[C@@H](F)C2)c1F)c1c[nH]c2ncc(-c3cnc(C4CC4)nc3)cc12`, the GI50 was 0.0174 µM and 0.0272 µM; the TGI was > 10 µM and 23.1 µM.

Regarding `O=C(c1ccc(Cl)cc1)c1cnc(Nc2ccccc2Cl)s1`, the TGI was > 100 µM.

A further assay deals with OVCAR-5 ovarian. In words: growth of human tumour cells (NCI), 48 h.
`O=C(c1ccc(F)c(F)c1Nc1ccc(I)cc1F)N1CC(O)([C@@H]2CCCCN2)C1`: the GI50 was < 0.0277 µM and 0.0403 µM; the TGI was 15.1 µM and > 10 µM.

On to `Oc1cc(O)c2c(c1)OC(c1ccc(O)c(O)c1)C(OC1(c3cc(O)c(O)c(O)c3)Oc3cc(O)cc(O)c3C(O)C1O)C2` (stereo not drawn), for which the TGI came to 59.3 µM.

In the case of `COC12C=C/C(=C(/C(=O)OCc3ccncc3)C(=O)CCCCCCCCC3(OC)C=C/C(=C(/C(=O)OCc4ccncc4)C(=O)CCCCCCCC1)O3)O2`, the GI50 was 0.87 µM and the TGI turned out to be 4.6 µM.

For `CCOc1ccc2nc(S/C(=C/C=C(C#N)C#N)c3ccc(C)cc3)sc2c1`, the GI50 was 57.5 µM and the TGI is > 100 µM.

Take `COc1cc(CNCCCN2C(=O)c3ccc4c5c(ccc(c35)C2=O)C(=O)N(CCCNCc2cc(OC)c(OC)c(OC)c2)C4=O)cc(OC)c1OC`: the GI50 was 0.801 µM and the TGI was determined as 2.79 µM.

As to `Cc1nc2cnc(N)c(C#Cc3cncc(C(=O)Nc4ccc(CN5CCN(C)CC5)c(C(F)(F)F)c4)c3)c2nc1C`, the GI50 is 0.304 µM and the TGI is 11 µM.

Turning to `CC(=O)OC12c3ccccc3-c3ccccc3C1C1C(=O)N(C)C(=O)C12Cl` (stereo not drawn), the TGI was > 10 µM.

Regarding `Cc1csc(Nc2nc(-c3cccc(Br)c3)nc(C(Cl)(Cl)Cl)n2)n1`, the GI50 was 5.2 µM and the TGI was > 100 µM.

As for `NS(=O)(=O)c1ccc(N(/C=C/C(=O)C(F)(F)F)CC(=O)c2ccc(Cl)cc2)cc1`, the GI50 was 57 µM and the TGI was > 100 µM.

As for `C1CSCCSCCS1`, the TGI is > 100 µM.

With `CCN(CC)CCOc1ccc(/C=C2\CC3C4CC=C5C[C@@H](O)CC[C@]5(C)C4CC[C@]3(C)C2=O)cc1OC` (stereo partly drawn), the GI50 is 5.53 µM and the TGI stood at 20.3 µM.

For `O=C(CC(O)(C(F)(F)F)C(F)(F)F)c1cc(CC(=O)C(O)(C(F)(F)F)C(F)(F)F)cc(CC(=O)C(O)(C(F)(F)F)C(F)(F)F)c1`, the TGI is > 9.25 µM.

In the case of `O=c1c2ccccc2sc2cccc(NCCCN3CCN(CCCNc4cccc5sc6ccccc6c(=O)c45)CC3)c12`, the TGI was > 100 µM.

As to `CC1(C)OCCn2c1nc1c(N3CCOCC3)nc(-c3cnc(N)nc3)nc12`, the GI50 was 0.249 µM and the TGI is > 100 µM.

`CC1=CC(=O)[C@@H](O)[C@]2(C)[C@H]3[C@@]4(O)OC[C@]35[C@H]([C@@H](C)[C@H]4O)[C@@H](O)C(=O)O[C@@H]5C[C@@H]12` showed a TGI of 5.4 µM.

Regarding `O=C(c1c(F)ccc(NS(=O)(=O)N2CC[C@@H](F)C2)c1F)c1c[nH]c2ncc(-c3cnc(C4CC4)nc3)cc12`, the GI50 is > 6.42 µM and 9.04 µM; the TGI was > 10 µM and 46.4 µM.

`O=C(c1ccc(Cl)cc1)c1cnc(Nc2ccccc2Cl)s1` gave a TGI of 95.5 µM.

The test system of a further assay is EKVX NSCLC. The assay is described as follows: growth of human tumour cells (NCI), 48 h.
For the compound `O=C(c1ccc(F)c(F)c1Nc1ccc(I)cc1F)N1CC(O)([C@@H]2CCCCN2)C1`, the GI50 is 0.308 µM and the TGI was > 10 µM.

The compound `Oc1cc(O)c2c(c1)OC(c1ccc(O)c(O)c1)C(OC1(c3cc(O)c(O)c(O)c3)Oc3cc(O)cc(O)c3C(O)C1O)C2` (stereo not drawn) showed a TGI of 41.6 µM.

With `COC12C=C/C(=C(/C(=O)OCc3ccncc3)C(=O)CCCCCCCCC3(OC)C=C/C(=C(/C(=O)OCc4ccncc4)C(=O)CCCCCCCC1)O3)O2`, the GI50 was 1.21 µM and the TGI was 5.1 µM.

As for `CCOc1ccc2nc(S/C(=C/C=C(C#N)C#N)c3ccc(C)cc3)sc2c1`, the GI50 is > 100 µM and the TGI is > 100 µM.

For `COc1cc(CNCCCN2C(=O)c3ccc4c5c(ccc(c35)C2=O)C(=O)N(CCCNCc2cc(OC)c(OC)c(OC)c2)C4=O)cc(OC)c1OC`, the GI50 was 0.543 µM and the TGI turned out to be 1.35 µM.

`Cc1nc2cnc(N)c(C#Cc3cncc(C(=O)Nc4ccc(CN5CCN(C)CC5)c(C(F)(F)F)c4)c3)c2nc1C`: the GI50 was 0.739 µM and the TGI is 12.6 µM.

Take `CC(=O)OC12c3ccccc3-c3ccccc3C1C1C(=O)N(C)C(=O)C12Cl` (stereo not drawn): the TGI is > 10 µM.

For the compound `Cc1csc(Nc2nc(-c3cccc(Br)c3)nc(C(Cl)(Cl)Cl)n2)n1`, the GI50 is 1.61 µM and the TGI was 5.35 µM.
